#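 Five concentrations, 48 hours, 96-well plates. GI50 = concentration required for 50% inhibition of growth.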 Activity calls are given as the source filed them. No stated cut-off is given here; in the data, active = GI50 up to about 1.1 µM and inactive = higher.
# How the values were obtained:
# Test in all cases: NCI-60 cell line screen, 48 h
# DMS-273 = test system: DMS-273
# KM-20L2 = test system: KM-20L2
# LXFL 529 = test system: LXFL 529
# SNB-78 = test system: SNB-78
# M19-MEL = test system: M19-MEL
# BT-549 = test system: BT-549
# DU-145 = test system: DU-145
# T47D = test system: T47D
# RXF 631 = test system: RXF 631
SMILES,GI50 (DMS-273),GI50 (KM-20L2),GI50 (LXFL 529),GI50 (SNB-78),GI50 (M19-MEL),GI50 (BT-549),GI50 (DU-145),GI50 (T47D),GI50 (RXF 631)
O=C(/C=C/c1ccccc1F)C(c1ccccc1)c1ccccc1,3.85 µM (inactive),3.8 µM (inactive),3.37 µM (inactive),5.93 µM (inactive),,,,,
Cc1c2[nH]c3ccc(Br)cc3c2c(C)c2nccc(O)c12,12.2 µM (inactive),,,16.2 µM (inactive),14.6 µM (inactive),,,,
Cc1cc2nc3c(C)c4ccccc4c(C)n3c2cc1C,,,,,,6.07 µM (inactive),3.3 µM (inactive),> 10 µM (inactive),
O=C1C(=CNC(=S)c2ccccc2)C(=O)c2ccccc21,,,,,,28.1 µM (inactive),57.8 µM (inactive),60.1 µM (inactive),
COc1ccccc1N1C(Cl)C(=O)C1c1c[nH]c2ccccc12 (configuration not stated),,> 100 µM (inactive),> 100 µM (inactive),,> 100 µM (inactive),,,,
CC[C@]1(c2ccc3c(c2)OCO3)C=[N+]([O-])O[C@H](OC2CCCC2(c2ccccc2)c2ccccc2)[C@@H]1OC(C)=O (some centres not stated),,,,,,2.53 µM (inactive),2.1 µM (inactive),2.09 µM (inactive),
Cn1cc(-c2cnc(-c3cn(C)c4ccccc34)cn2)c2ccccc21,,,,,,14.1 µM (inactive),5.27 µM (inactive),44.8 µM (inactive),
Cc1cc(NS(=O)(=O)c2ccc(Nc3c4ccccc4nc4c(C(=O)NC(CO)(CO)CO)cccc34)cc2)no1,,,,,,39.2 µM (inactive),48.1 µM (inactive),26.5 µM (inactive),
CCOc1cc2c(cc1O)C(O)C[C@@H]1[C@@H]2CC[C@]2(C)[C@@H](O)CC[C@@H]12 (some centres not stated),,,,,,39.1 µM (inactive),0.59 µM (active),,
Cn1c(=O)nc2n(-c3ccc(Cl)cc3Cl)c3ccccc3nc-2c1=O,,0.861 µM (active),,14.6 µM (inactive),1.02 µM (active),,,,
NC(CCOCCP(=O)(O)CCC1C=CC=CC1)C(=O)O (configuration not stated),,,,,,> 100 µM (inactive),> 100 µM (inactive),43.3 µM (inactive),
O=C1C(=O)c2cc([N+](=O)[O-])ccc2-c2ccc([N+](=O)[O-])cc21,0.397 µM (active),4.88 µM (inactive),,0.698 µM (active),0.285 µM (active),,,,
O=C(c1ccccc1)[C@@H]1C[C@H](Sc2ccccc2)c2cc(Cl)ccc2N1,24 µM (inactive),26.9 µM (inactive),24 µM (inactive),36.9 µM (inactive),30.1 µM (inactive),,,,28.1 µM (inactive)
c1ccc(CN2CCC3(CC2)SSC2(CCN(Cc4ccccc4)CC2)SS3)cc1,,,,,,> 100 µM (inactive),> 100 µM (inactive),> 100 µM (inactive),
O=C(/C=C/CC(O)(c1ccccc1)c1ccccc1)Nc1ccccc1Cl,,> 100 µM (inactive),> 100 µM (inactive),,> 100 µM (inactive),,,,
O=C(Nc1ccc([N+](=O)[O-])cc1[N+](=O)[O-])C(=O)C(C(=O)c1ccc2ccccc2c1)C1OC(=O)c2ccccc21 (configuration not stated),10.2 µM (inactive),25.1 µM (inactive),10.5 µM (inactive),21.4 µM (inactive),12.2 µM (inactive),,,,16.6 µM (inactive)
[C-]#[N+]C(=C\c1ccc(O)cc1)/C(=C/c1ccc(O)cc1)[N+]#[C-] [XANTOCILLIN],,,,,,2.41 µM (inactive),2.53 µM (inactive),3.34 µM (inactive),
O=C(CCC(=O)Nc1ccc(Cl)c(Cl)c1)CC(=O)c1ccc(Br)cc1,,> 100 µM (inactive),61.8 µM (inactive),> 100 µM (inactive),> 100 µM (inactive),,,,> 100 µM (inactive)
NC1C2C=CC(C2)C1C(=O)O (configuration not stated),,,,,,> 100 µM (inactive),> 100 µM (inactive),> 100 µM (inactive),
CC(C)(CCCCC(C)(C)NC1=NCCO1)NC1=NCCO1,,,,,,,> 10 µM (inactive),> 10 µM (inactive),
CN(c1ccccc1)c1c(-c2ccccc2)c(=O)oc2c1ccc1occc12,> 100 µM (inactive),,,> 100 µM (inactive),> 100 µM (inactive),,,,

SMILES,GI50 (DMS-273),GI50 (KM-20L2),GI50 (LXFL 529),GI50 (SNB-78),GI50 (M19-MEL),GI50 (BT-549),GI50 (DU-145),GI50 (T47D),GI50 (RXF 631)
CCCCCCCCCCCCCCCCOCC(COP(=O)([O-])OCC[N+](C)(C)C)OCCCCCCCCCCCCCCCC (configuration not stated),> 100 µM (inactive),> 100 µM (inactive),,> 100 µM (inactive),> 100 µM (inactive),,,,
CC(C)C1CN(C(=O)OCc2ccccc2)C2N1C(=O)C2(C)OCc1ccccc1 (configuration not stated),35.3 µM (inactive),43.9 µM (inactive),28.7 µM (inactive),,32.4 µM (inactive),,,,40.6 µM (inactive)
CCCNC(C#N)c1ccc(OCCCCCCCCCCOc2ccc(C(C#N)NCCC)cc2)cc1 (configuration not stated),,,,,,75 µM (inactive),49 µM (inactive),64 µM (inactive),
C=C(CCCO)[C@@H]1CC[C@@](C)(O)[C@H]1C,> 100 µM (inactive),> 100 µM (inactive),> 100 µM (inactive),> 100 µM (inactive),> 100 µM (inactive),,,,> 100 µM (inactive)
Nc1c(C(=O)Nc2ccc(C3=NCCN3)cc2)cccc1C(=O)Nc1ccc(C2=NCCN2)cc1,> 100 µM (inactive),> 100 µM (inactive),,> 83.8 µM (inactive),> 100 µM (inactive),,,,
CC(=O)NC1CC(C(C)(C)NC(C)=O)CC=C1C (configuration not stated),,,,,,> 100 µM (inactive),> 100 µM (inactive),> 100 µM (inactive),
Nc1nc(N)c2c(CCc3ccc(C(=O)N[C@@H](CCC(=O)O)C(=O)O)cc3)ccnc2n1,,,,,,,0.055 µM (active),75.5 µM (inactive),
CCN(CC)c1c(C)c(C(=O)OC)nn1-c1ccccc1,> 100 µM (inactive),> 100 µM (inactive),,> 100 µM (inactive),> 66.2 µM (inactive),,,,
COc1cc2c(cc1Oc1c(Oc3c(O)c(OC)cc4c3C(CC(C)C)N(C)CC4)c(OC)cc3c1C(CC(C)C)N(C)CC3)C(CC(C)C)N(C)CC2 (configuration not stated),1.18 µM (inactive),0.698 µM (active),,1.13 µM (inactive),0.515 µM (active),,,,
CC(=O)Nc1ccc(C2=N/C(=C\c3ccc(Cl)c(Cl)c3)C(=O)O2)cc1,80.4 µM (inactive),> 100 µM (inactive),> 100 µM (inactive),> 100 µM (inactive),82.6 µM (inactive),,,,> 100 µM (inactive)
COc1cc2c(c(OC)c1OC)-c1[nH]ncc1CC2,> 100 µM (inactive),> 100 µM (inactive),> 100 µM (inactive),> 100 µM (inactive),> 100 µM (inactive),,,,
O=C1N[C@@H]([C@H](CCCCCO)OC(=O)c2ccccc2)CO1,,,,,,> 100 µM (inactive),> 100 µM (inactive),> 100 µM (inactive),
CC12Nc3ccccc3N1C(=O)c1ccccc12 (configuration not stated),,,,,,> 100 µM (inactive),88.1 µM (inactive),> 100 µM (inactive),
CC1(C)CC(=O)C2=C(C1)NC1=C(C(=O)CC(C)(C)C1)C2c1ccc([N+](=O)[O-])cc1,,,,,,> 100 µM (inactive),> 100 µM (inactive),> 100 µM (inactive),
O=C(Nc1ccc(F)cc1)c1cc2ccc(O)cc2o/c1=N\c1ccccc1F,,,,,,14.8 µM (inactive),34.4 µM (inactive),14.8 µM (inactive),
C=C1CC(OC)(C(O)C(=O)N[C@H]2OCO[C@H]3C2O[C@H](C[C@@H](CO)OC)C(C)(C)C3OC)O[C@H](C)[C@@H]1C (some centres not stated),< 0.00931 µM (active),< 0.00931 µM (active),,,< 0.00931 µM (active),,,,
CC(=O)O[C@H]1[C@@H](OC(C)=O)C(C)(C)/C=C/[C@H](C)C(=O)[C@@]2(OC(C)=O)C[C@@](C)(OC(C)=O)[C@H](OC(C)=O)[C@@H]2[C@H]2OC(=O)CC[C@@]2(OC(=O)c2ccccc2)[C@@H]1OCC(C)C,,,,,,67.6 µM (inactive),97.3 µM (inactive),58.5 µM (inactive),
C=C1C(=O)OC2/C=C(\C)CC/C=C(/C)CC(OC(=O)/C(=C/CO)CO)C12 (configuration not stated),,,,,,14.3 µM (inactive),17.5 µM (inactive),> 10 µM (inactive),
O=C1O/C(=C(/c2ccc(Cl)cc2)c2nc3ccccc3[nH]2)C(O)=C1c1ccc(Cl)cc1,2.08 µM (inactive),2.38 µM (inactive),2.65 µM (inactive),4 µM (inactive),,,,,0.891 µM (active)
C/C(CC(=O)NCCc1ccccc1)=N\NS(=O)(=O)c1ccc(C)cc1,> 100 µM (inactive),> 100 µM (inactive),> 100 µM (inactive),> 100 µM (inactive),> 100 µM (inactive),,,,> 100 µM (inactive)
Cc1ccc(S(=O)(=O)NNC2Oc3cc4c(cc3C(c3ccccc3O)C2C)OCO4)cc1 (configuration not stated),,,,,,13 µM (inactive),13 µM (inactive),12 µM (inactive),
